Several values for one entry are separate records, joined by “and”; a condition that tells them apart may be missing. Identical values can stand only once. Toxic doses and inconclusive results are not listed. Cut-off read from the data, not from the text of the source: active = T/C of 150% or more; inactive = T/C below 125%.
System: L1210 leukemia ip in BDF1 mice, survival T/C
Assay: NCI In Vivo Anticancer Drug Screen. Data for tumor model L1210 Leukemia (intraperitoneal) in B6D2F1 (BDF1) mice
Details: endpoint: mean survival time, higher = longer survival
Method in brief: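 Survival endpoint. Drug-treated group vs vehicle group, expressed as T divided by C. Tumor passaged by transplantation.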

[1] = dose: 100.0 mg/kg/injection, schedule: Q04DX003 (ip), vehicle: saline with Tween-80
[2] = dose: 200.0 mg/kg/injection, schedule: Q04DX003 (ip), vehicle: saline with Tween-80
[3] = dose: 400.0 mg/kg/injection, schedule: Q04DX003 (ip), vehicle: saline with Tween-80
[4] = dose: 100.0 mg/kg/injection, schedule: Q01DX001 (ip), vehicle: Klucel (hydroxypropylcellulose) (HPC)
[5] = dose: 200.0 mg/kg/injection, schedule: Q01DX001 (ip), vehicle: Klucel (hydroxypropylcellulose) (HPC)
[6] = dose: 100.0 mg/kg/injection, schedule: Q04DX003 (ip), vehicle: Klucel (hydroxypropylcellulose) (HPC)
[7] = dose: 200.0 mg/kg/injection, schedule: Q04DX003 (ip), vehicle: Klucel (hydroxypropylcellulose) (HPC)
[8] = dose: 400.0 mg/kg/injection, schedule: Q04DX003 (ip), vehicle: Klucel (hydroxypropylcellulose) (HPC)

Measured: T/C

OC(CSc1ccccc1)(c1ccccc1)c1ccccc1
inactive: dose: 56.3 mg/kg/injection, schedule: Q03DX002 (ip), vehicle: saline with Tween-80 121 % of control | dose: 112.0 mg/kg/injection, schedule: Q03DX002 (ip), vehicle: saline with Tween-80 102 % of control

C[N+]1(CCCNC2=CC(=O)C=CC2=O)CCCC1
inactive: dose: 0.5 mg/kg/injection, schedule: Q01DX001 (ip), vehicle: saline 108 % of control

COc1cc(-c2ccc(NC(=O)CC(C)=O)c(OC)c2)ccc1NC(=O)CC(C)=O
inactive: dose: 100.0 mg/kg/injection, schedule: Q01DX009 (ip), vehicle: saline with Tween-80 94 % of control | [1] 92 % of control | dose: 200.0 mg/kg/injection, schedule: Q01DX009 (ip), vehicle: saline with Tween-80 101 % of control | [2] 91 % of control | dose: 400.0 mg/kg/injection, schedule: Q01DX009 (ip), vehicle: saline with Tween-80 99 % of control | [3] 89 % of control

O=C1C2CCN(CC2)C1Cn1cnc2c(Cl)ncnc21 (stereo not given)
inactive: [4] 95 % of control | [5] 98 % of control

C=CCN(CC=C)C(=O)CCN1CC1
inactive: dose: 1.25 mg/kg/injection, schedule: Q01DX Z (ip), vehicle: saline 96 % of control | dose: 2.5 mg/kg/injection, schedule: Q01DX Z (ip), vehicle: saline 96 % of control | dose: 5.0 mg/kg/injection, schedule: Q01DX Z (ip), vehicle: saline 100 % of control | dose: 10.0 mg/kg/injection, schedule: Q01DX Z (ip), vehicle: saline 98 % of control and 111 % of control | dose: 10.0 mg/kg/injection, schedule: Q01DX Z (oral), vehicle: saline 108 % of control | dose: 20.0 mg/kg/injection, schedule: Q01DX001 (ip), vehicle: saline 103 % of control | dose: 20.0 mg/kg/injection, schedule: Q01DX Z (ip), vehicle: saline 96 % of control | dose: 20.0 mg/kg/injection, schedule: Q01DX Z (oral), vehicle: saline 117 % of control | dose: 40.0 mg/kg/injection, schedule: Q01DX001 (ip), vehicle: saline 115 % of control | dose: 40.0 mg/kg/injection, schedule: Q01DX Z (oral), vehicle: saline 86 % of control

COc1ccccc1NC(=O)OCC#CCOC(=O)Nc1ccccc1OC
inactive: [6] 91 % of control | [7] 95 % of control | [8] 91 % of control

OCC1(c2ccccc2)OC1(c1ccccc1)c1ccccc1 (stereo not given)
inactive: dose: 6.25 mg/kg/injection, schedule: Q04DX002 (ip), vehicle: Klucel (hydroxypropylcellulose) (HPC) 86 % of control | dose: 12.5 mg/kg/injection, schedule: Q04DX002 (ip), vehicle: Klucel (hydroxypropylcellulose) (HPC) 101 % of control | dose: 25.0 mg/kg/injection, schedule: Q04DX002 (ip), vehicle: Klucel (hydroxypropylcellulose) (HPC) 99 % of control and 101 % of control

CC(=O)Nc1c2ccccc2nc2c1c(C)c(C)c1ccccc12
inactive: dose: 50.0 mg/kg/injection, schedule: Q01DX001 (ip), vehicle: Klucel (hydroxypropylcellulose) (HPC) 87 % of control | [4] 89 % of control | [5] 94 % of control | dose: 400.0 mg/kg/injection, schedule: Q01DX001 (ip), vehicle: Klucel (hydroxypropylcellulose) (HPC) 91 % of control

C/C(=N\OCc1cc2c(cc1Cl)OCO2)C(=O)O
inactive: [1] 100 % of control | [2] 99 % of control | [3] 91 % of control

Cc1cc(C)c(NC(=O)Nc2ccccc2C)c(C)c1
inactive: dose: 100.0 mg/kg/injection, schedule: Q01DX009 (ip), vehicle: Klucel (hydroxypropylcellulose) (HPC) 97 % of control | [6] 108 % of control | dose: 200.0 mg/kg/injection, schedule: Q01DX009 (ip), vehicle: Klucel (hydroxypropylcellulose) (HPC) 103 % of control | [7] 98 % of control | dose: 400.0 mg/kg/injection, schedule: Q01DX009 (ip), vehicle: Klucel (hydroxypropylcellulose) (HPC) 99 % of control | [8] 94 % of control

CCOC(=O)c1nc2c(OC)nn(O)cc-2c1[N+](=O)[O-]
inactive: dose: 12.5 mg/kg/injection, schedule: Q04DX002 (ip), vehicle: saline with Tween-80 92 % of control | dose: 25.0 mg/kg/injection, schedule: Q04DX002 (ip), vehicle: saline with Tween-80 99 % of control

O=P1(CCc2ccccc2)CC(Br)C(Br)C1 (stereo not given)
inactive: [6] 101 % of control | [7] 106 % of control | [8] 98 % of control

Source: PubChem BioAssay AID248 (DTP/NCI, 2004)
